Source: the supplement of paper PMC10307832

Experiments:
Assay in all cases: relative viability (nuclei count vs DMSO), 5 days (fraction); higher = more cells survive
[1] = tested on: NCI-H2126
Procedure, shortened: (§1)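 Lung cancer cell lines in 1536-well plates were dosed by pin tool the day after seeding, either with one drug alone or with a fixed anchor-drug dose plus five library-drug doses (not always all listed) in √10 steps. After 5 days, cells were fixed and their nuclei stained in one step (final 0.05% Triton X-100, 1% formaldehyde, 1 ug/ml Hoechst), then counted on 4× images. Relative viability is the nuclei count in treated wells divided by that in vehicle wells. Values are medians of duplicate plates.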

[2] = tested on: NCI-H1975
Procedure, shortened: as §1

[3] = tested on: NCI-H838
Procedure, shortened: as §1

[4] = tested on: LCLC-103H
Procedure, shortened: as §1

[5] = tested on: A-427
Procedure, shortened: as §1

[6] = tested on: NCI-H460
Procedure, shortened: as §1

[7] = tested on: ABC-1
Procedure, shortened: as §1

[8] = tested on: HARA
Procedure, shortened: as §1

[9] = tested on: NCI-H647
Procedure, shortened: as §1

[10] = tested on: RERF-LC-KJ
Procedure, shortened: as §1

[11] = tested on: NCI-H1944
Procedure, shortened: as §1

[12] = tested on: SW 900
Procedure, shortened: as §1

[13] = tested on: NCI-H1734
Procedure, shortened: as §1

[14] = tested on: LOU-NH91
Procedure, shortened: as §1

[15] = tested on: CAL-12T
Procedure, shortened: as §1

[16] = tested on: NCI-H727
Procedure, shortened: as §1

[17] = tested on: NCI-H1651
Procedure, shortened: as §1

[18] = tested on: NCI-H1666
Procedure, shortened: as §1

[19] = tested on: NCI-H596
Procedure, shortened: as §1

[20] = tested on: BEN
Procedure, shortened: as §1

[21] = tested on: NCI-H2085
Procedure, shortened: as §1

CN1CCN(CCOc2cc(OC3CCOCC3)c3c(Nc4c(Cl)ccc5c4OCO5)ncnc3c2)CC1 [Saracatinib] + NC(=O)Nc1cc(-c2cccc(F)c2)sc1C(=O)N[C@H]1CCCNC1 [AZD7762] (partner 0.2 µM)
relative viability ([1]; first compound 0.02 µM): 1 | relative viability ([1]; first compound 0.2 µM): 0.883 | relative viability ([1]; first compound 0.6325 µM): 1.01 | relative viability ([1]; first compound 2 µM): 0.993 | relative viability ([2]; first compound 0.02 µM): 0.812 | relative viability ([2]; first compound 0.2 µM): 0.789 | relative viability ([2]; first compound 0.6325 µM): 0.659 | relative viability ([2]; first compound 2 µM): 0.468 | relative viability ([3]; first compound 0.02 µM): 0.957 | relative viability ([3]; first compound 0.2 µM): 0.886 | relative viability ([3]; first compound 0.6325 µM): 0.989 | relative viability ([3]; first compound 2 µM): 0.852 | relative viability ([4]; first compound 0.02 µM): 0.855 | relative viability ([4]; first compound 0.2 µM): 0.711 | relative viability ([4]; first compound 0.6325 µM): 0.821 | relative viability ([4]; first compound 2 µM): 0.772 | relative viability ([5]; first compound 0.02 µM): 0.759 | relative viability ([5]; first compound 0.2 µM): 0.636 | relative viability ([5]; first compound 0.6325 µM): 0.611 | relative viability ([5]; first compound 2 µM): 0.569 | relative viability ([6]; first compound 0.02 µM): 0.732 | relative viability ([6]; first compound 0.2 µM): 0.482 | relative viability ([6]; first compound 0.6325 µM): 0.628 | relative viability ([6]; first compound 2 µM): 0.596 | relative viability ([7]; first compound 0.02 µM): 0.934 | relative viability ([7]; first compound 0.2 µM): 0.825 | relative viability ([7]; first compound 0.6325 µM): 0.908 | relative viability ([7]; first compound 2 µM): 0.695 | relative viability ([8]; first compound 0.02 µM): 0.413 | relative viability ([8]; first compound 0.2 µM): 0.345 | relative viability ([8]; first compound 0.6325 µM): 0.247 | relative viability ([8]; first compound 2 µM): 0.355 | relative viability ([9]; first compound 0.02 µM): 0.564 | relative viability ([9]; first compound 0.2 µM): 0.509 | relative viability ([9]; first compound 0.6325 µM): 0.507 | relative viability ([9]; first compound 2 µM): 0.354 | relative viability ([10]; first compound 0.02 µM): 1.13 | relative viability ([10]; first compound 0.2 µM): 0.971 | relative viability ([10]; first compound 2 µM): 1 | relative viability ([11]; first compound 0.02 µM): 0.476 | relative viability ([11]; first compound 0.2 µM): 0.413 | relative viability ([11]; first compound 0.6325 µM): 0.528 | relative viability ([11]; first compound 2 µM): 0.404 | relative viability ([12]; first compound 0.02 µM): 0.696 | relative viability ([12]; first compound 0.2 µM): 0.545 | relative viability ([12]; first compound 0.6325 µM): 0.533 | relative viability ([12]; first compound 2 µM): 0.492 | relative viability ([13]; first compound 0.02 µM): 0.537 | relative viability ([13]; first compound 0.6325 µM): 0.622 | relative viability ([13]; first compound 2 µM): 0.566 | relative viability ([14]; first compound 0.02 µM): 0.785 | relative viability ([14]; first compound 0.2 µM): 0.722 | relative viability ([14]; first compound 0.6325 µM): 0.745 | relative viability ([14]; first compound 2 µM): 0.598 | relative viability ([15]; first compound 0.02 µM): 0.612 | relative viability ([15]; first compound 0.2 µM): 0.6 | relative viability ([15]; first compound 0.6325 µM): 0.662 | relative viability ([15]; first compound 2 µM): 0.699 | relative viability ([16]; first compound 0.02 µM): 0.683 | relative viability ([16]; first compound 0.2 µM): 0.522 | relative viability ([16]; first compound 0.6325 µM): 0.616 | relative viability ([16]; first compound 2 µM): 0.401 | relative viability ([17]; first compound 0.02 µM): 0.549 | relative viability ([17]; first compound 0.2 µM): 0.359 | relative viability ([17]; first compound 0.6325 µM): 0.514 | relative viability ([17]; first compound 2 µM): 0.436 | relative viability ([18]; first compound 0.02 µM): 0.956 | relative viability ([18]; first compound 0.2 µM): 0.821 | relative viability ([18]; first compound 0.6325 µM): 1.07 | relative viability ([18]; first compound 2 µM): 0.847 | relative viability ([19]; first compound 0.02 µM): 1.12 | relative viability ([19]; first compound 0.2 µM): 1.05 | relative viability ([19]; first compound 0.6325 µM): 1.14 | relative viability ([19]; first compound 2 µM): 0.852 | relative viability ([20]; first compound 0.02 µM): 0.906 | relative viability ([20]; first compound 0.2 µM): 0.511 | relative viability ([20]; first compound 0.6325 µM): 0.847 | relative viability ([20]; first compound 2 µM): 0.713 | relative viability ([21]; first compound 0.02 µM): 1.06 | relative viability ([21]; first compound 0.2 µM): 0.864 | relative viability ([21]; first compound 0.6325 µM): 0.903 | relative viability ([21]; first compound 2 µM): 0.871
